These results are taken from US20110146678A1, “PROCESS FOR IMPROVING CRYSTALLINITY” (priority 2008, published 2011).

Common to all, as to format: physicochemical
Data set [1] can be described thus: Particle size by Sympatec HELOS laser diffraction / optical microscopy. Conditions: for D(10) / D(50) / D(90): Sympatec HELOS laser diffraction. An excerpt:
The particle size can be measured by laser diffraction techniques: Light from a laser is shone into a cloud of particles, which are suspended in a transparent gas such as air. The particles scatter the light; smaller particles scattering the light at larger angles than bigger particles. The scattered light can be measured by a series of photodetectors placed at different angles. This is known as the diffraction pattern for the sample. The diffraction pattern can be used to measure the size of the particles using well documented light scattering theory. The particles are assumed to be spherical but few particles are actually spherical. The particle diameters are calculated from the measured volume of the particle, but assume a sphere of equivalent volume.
Budesonide (5 g) was dissolved in 100 mL of dichloromethane. The samples of budesonide powder collected in the ultrasonic chamber were produced using a Büchi-290 laboratory-scale spray dryer […], Büchi, Switzerland). The solution was atomized using nitrogen at 7 bar flowing at approximately at 10 Lpm (Litre/minute). The aspirator was set at 100% and flow rate of solution was set to […]. The gas temperature was set to 120° C. Budesonide particles were collected the ultrasonic chamber connected to the end of high performance cyclone separator. In order to apply ultrasound to the spray dried particles, the collection ultrasonic chamber was filled with heptane thermoregulated at 25° C. and was fitted with an ultrasonic probe resonating at 20 kHz. Ultrasound at 20 W power was applied between 30 minutes and 1 hour. The resulting particle slurry was spray dried and particles characterized by optical microscopy and DSC (Differential Scanning calorimetry). The size of the particles were typically in the range of 1-7 μm.
The D(10), D(50), D(90) for two representative samples were 1.21, 3.03, 4.63 μm and 1.05, 2.99, 3.76 μm respectively as determined by Sympatec HELOS laser diffraction. […]

A short description of data set [2]: Cohesive-adhesive balance (CAB) by AFM colloid probe. The note with it: for adhesive FP-Lactose interactions, times greater than cohesive FP-FP interactions (CAB analysis): equivalent contact geometry, 20° C., 45% RH; for adhesiveness to lactose (FIG. 29): comparison between batches. The text has this:
The cohesive-adhesive balance (CAB) approach of the AFM colloid probe technique is a development that enables direct quantification of the cohesive and adhesive nature—“the force balance” of an API within a formulation. It is a commercially available screening tool in determining the cohesive/adhesive force interactions between potential formulation components using milligrams or less of material.
The CAB approach measures the forces of interaction between API particles, mounted as colloid AFM probes, and well-defined crystalline surfaces of the API and carrier substrates. A CAB plot generated from the interaction of a number of probes allows a characteristic measurement of the cohesive nature of the API, in relation to its adhesive propensity with an excipient material to be quantified. The development of the CAB approach has overcome a number of the limitations associated with conventional AFM colloid probe methodologies, including issues regarding instrumental validation and the need to determine the true area of contact of the interacting surfaces. […] Drug-carrier combinations with a higher CAB ratio, such as >1, results in a higher fine particle fraction (FPF) upon aerosolisation, despite potential difference between the carriers in terms of size, shape, roughness and flowability. Drug-carrier combinations with a lower CAB ratio, such as, <1 result in greater […] of the active particle to the carrier, therefore the active particle is more likely to remain attached to the carrier. This means that in an inhaled composition, the active particle which remains attached to the carrier particle may not reach the lung and may be deposited in the throat or on the tongue. Preferably, the particles produced according to the present invention have much lower cohesiveness than particles prepared by other methods including micronization and milling. With respect to a measure of cohesiveness, since all substrates will be different with respect to their cohesive and adhesive properties, the CAB ratio is a dimensionless value which is a more useful measure for comparison. Preferably, the particles produced according to the present invention have CAB ratios with the carrier particles of 0.8-1.3, more preferably 0.9-1.2, more preferably, 1.0- 1.1. This is a careful balance between the cohesion of the drug with itself and the adhesion of the drug with the carrier.
The cohesive-adhesive balance (CAB) of micronized Fluticasone Propionate (FP) and batches of FP engineered by the method of the current invention (samples 2 and 3) and by a different method exemplified in WO 2008/114052 A1 (sample 4), as described in Example 1, were determined with respect to crystalline substrates of FP and lactose monohydrate. The CAB force balance of the different batches with respect to the crystalline substrates was determined as follows:
Particles (n=3) of all batches of FP were attached onto standard V-shaped tipless cantilevers (DNP-020, DI, CA, USA) using an epoxy resin glue (Araldite, Cambridge, UK).
Smooth crystals of lactose were produced on cooling of a heated saturated droplet sandwiched between cover slips. Smooth drug crystals were produced using sitting-drop anti-solvent crystallisation, in which the active was dissolved in acetone and the anti-solvent employed was water.
Individual force curves (n=1024) were conducted over a 10 μm×10 μm area at a scan rate of 4 Hz and a compressive load of 40 nN. Environmental conditions were maintained at a constant temperature of 20° C. (±1.5 ° C.) and relative humidity 45±3%.

Data set [3] can be described thus: Storage stability of FPF of binary DPI formulations at 25° C./75% RH. As for the experimental part: All formulations were stored for one and three months at 25° C./75% RH. The FPF of the formulation containing micronized fluticasone propionate decreased by almost 50% after storage for one month and almost 70% after storage for three months compared to the FPF at t=0. However, the FPF of formulations containing particles prepared by the current invention were not as affected following storage in stress conditions. The FPF of sample 3 decreased 6% after storage for one month and decreased 3% after storage for three months compared to the FPF at t=0. The FPF of sample 2 decreased 7% after one months storage and 28% after three months storage compared to the FPF at t=0. There was a small yet statistically significant decrease, 29%, in the fine particle fraction of the formulation containing sample 4 which was prepared by alternative precipitation approach after one month with a decrease of 24% after 3 months storage compared to the FPF at t=0. This may be related to the planar morphology of the particles, and therefore, the particles are likely to develop greater adhesion to the lactose as result of capillary forces. It is clear that the FPF of samples 2 and 3 maintained a higher FPF than the micronized sample or sample 4 when stored for one or three months in the conditions described. The FPF of samples 2 and 3 decreased by a smaller percentage than the micronized sample when stored for one or three months in the conditions described. […] Sample 4 has a much lower FPF than samples 2 and 3 after storage for one or three months.

Setting [4] is: storage one month at 25° C./75% RH.
Where [5] appears, read: storage three months at 25° C./75% RH.

Regarding `CCC(=O)O[C@]1(C(=O)SCF)[C@H](C)C[C@H]2[C@@H]3C[C@H](F)C4=CC(=O)C=C[C@]4(C)[C@@]3(F)[C@@H](O)C[C@@]21C` [Sample 3, Fluticasone propionate], in data set [1], the “D(10)” value is on record as 0.99 μm, the “D(50)” value worked out at 2.55 μm and the “D(90)” value was 4.97 μm. In data set [2] (AFM force measurement), the “adhesion values (FP-lactose interaction)” value was 35-89 nN. The “adhesive FP-Lactose interactions, times greater than cohesive FP-FP interactions (CAB analysis)” value (shortened to “adhesive FP-Lactose interactions”) in data set [2] (listed as sample 3 FP) worked out at 1.16. For the same compound, the “decrease of FPF compared to FPF at t=0” value in data set [3] (setting [4]) stood at 6%. Besides, the “decrease of FPF compared to FPF at t=0” value in data set [3] (setting [5]) was found to be 3%.

As for `CCC(=O)O[C@]1(C(=O)SCF)[C@H](C)C[C@H]2[C@@H]3C[C@H](F)C4=CC(=O)C=C[C@]4(C)[C@@]3(F)[C@@H](O)C[C@@]21C` [micronized FP, Fluticasone Propionate], the adhesion values in data set [2] (AFM force measurement) fell in the range of 169 to 249 nN. Also, in data set [2], the “adhesiveness to lactose (FIG. 29)” value is given as “significantly more adhesive to lactose” and the “adhesive FP-Lactose interactions” value came out at 1.36. The “decrease of FPF compared to FPF at t=0” value in data set [3] (storage one month at 25° C./75% RH, listed as micronized fluticasone propionate) is on record as around 50%. The “decrease of FPF compared to FPF at t=0” value in data set [3] (storage three months at 25° C./75% RH, listed as micronized fluticasone propionate) is given as around 70%.

Consider `CCC(=O)O[C@]1(C(=O)SCF)[C@H](C)C[C@H]2[C@@H]3C[C@H](F)C4=CC(=O)C=C[C@]4(C)[C@@]3(F)[C@@H](O)C[C@@]21C` [Sample 4, fluticasone propionate, reference compound], for which, in data set [1], the “D(10)” value came to 1.14 μm, the “D(50)” value is recorded as 2.67 μm and the “D(90)” value is 5.11 μm. The “adhesion values (FP-lactose interaction)” value in data set [2] (AFM force measurement) is 400-800 nN. In data set [2], the “adhesiveness to lactose (FIG. 29)” value was “least adhesive to lactose and SX”. Further, the “adhesive FP-Lactose interactions” value in data set [2] (listed as sample 4 FP) is given as “almost equal”. Further, the “decrease of FPF compared to FPF at t=0” value in data set [3] (setting [4]) was determined as 29%. In data set [3] (setting [5]), the “decrease of FPF compared to FPF at t=0” value is on record as 24%.

Regarding `CCC(=O)O[C@]1(C(=O)SCF)[C@H](C)C[C@H]2[C@@H]3C[C@H](F)C4=CC(=O)C=C[C@]4(C)[C@@]3(F)[C@@H](O)C[C@@]21C` [Sample 2, Fluticasone propionate], in data set [1], the “D(10)” value is listed as 1.35 μm, the “D(50)” value is 3.25 μm and the “D(90)” value stood at 5.63 μm. The “size of the particles, typical range” value in data set [1] (after ultrasound treatment and spray drying of slurry) is 1-6 μm. The “adhesion values (FP-lactose interaction)” value in data set [2] (AFM force measurement) is 128-169 nN. Moreover, the “adhesive FP-Lactose interactions” value in data set [2] (listed as sample 2 FP) is reported as 1.17. In addition, the “decrease of FPF compared to FPF at t=0” value in data set [3] (setting [4]) turned out to be 7%. The “decrease of FPF compared to FPF at t=0” value in data set [3] (setting [5]) amounted to 28%.
